Experimental data published in patent US9273040B2 (Merck Sharp & Dohme Corp., priority 2011, dated 2016).

Columns and labels:
[1] = molecular target: T1, human Nav1.7 channels stably expressed in HEK 293 cells (Homo sapiens, UniProt Q15858); test: PatchXpress 7000 automated patch-clamp, sodium current; assay type: cell-based; details: 22° C., read-out: potency for the Nav 1.7 sodium ion channel (as measured by PatchXpress)
T1 construct: expressed in transfected cells
From the text: (§1) To measure state and use-dependent sodium channel inhibition, test compounds were further characterized in an automated PatchXpress® assay (Molecular Devices). Two voltage-clamp protocols were used. 1) Use-dependent protocol: Cells were held at a membrane potential 20 mV negative to the potential at which ˜50% of the channels are inactivated (V0.5 inact). A train of 30 ms depolarizations to −20 mV was applied to the cells expressing Nav1.7 at a frequency of 10 Hz. […] Data was collected in the absence and presence of drug, and after drug washout. 2) A double-pulse protocol was used to measure inactivated state block. Cells were held at a potential 20 mV negative to V0.5 inact. A 8000 ms pre-pulse 7 mV positive to V0.5 inact was given followed by a hyperpolarizing 2 ms pulse to −120 mV and a 20 ms test pulse to −20 mV. Protocol was applied to cells in the absence, presence of compound and after washout. The temperature of PatchXpress instruments was maintained at 22° C. The following recording solutions were used. Internal solution (mM): 30 CsCl, 5 HEPES, 10 EGTA, 120 CsF, 5 NaF, 2MgCl2, pH=7.3 with CsOH, 324 mosmo. External solution (mM): 120 NMDG, 40 NaCl, 1 KCl, 0.5 MgCl2, 5 HEPES, 2.7 CaCl2, pH=7.5 with NMDG-OH.
(§2) For all electrophysiology experiments, offline analysis was used to correct for current rundown and to determine percent inhibition as a function of drug concentration. IC50 values were determined by fitting to the Hill equation.

[2] = molecular target: T2, human Nav1.5 channels stably expressed in HEK 293 cells (Homo sapiens, UniProt Q14524); test: as above; assay type: cell-based; details: selectivity over Nav1.5
T2 construct: expressed in transfected cells
From the text: as §1, §2

T2 sequence (Q14524 whole entry): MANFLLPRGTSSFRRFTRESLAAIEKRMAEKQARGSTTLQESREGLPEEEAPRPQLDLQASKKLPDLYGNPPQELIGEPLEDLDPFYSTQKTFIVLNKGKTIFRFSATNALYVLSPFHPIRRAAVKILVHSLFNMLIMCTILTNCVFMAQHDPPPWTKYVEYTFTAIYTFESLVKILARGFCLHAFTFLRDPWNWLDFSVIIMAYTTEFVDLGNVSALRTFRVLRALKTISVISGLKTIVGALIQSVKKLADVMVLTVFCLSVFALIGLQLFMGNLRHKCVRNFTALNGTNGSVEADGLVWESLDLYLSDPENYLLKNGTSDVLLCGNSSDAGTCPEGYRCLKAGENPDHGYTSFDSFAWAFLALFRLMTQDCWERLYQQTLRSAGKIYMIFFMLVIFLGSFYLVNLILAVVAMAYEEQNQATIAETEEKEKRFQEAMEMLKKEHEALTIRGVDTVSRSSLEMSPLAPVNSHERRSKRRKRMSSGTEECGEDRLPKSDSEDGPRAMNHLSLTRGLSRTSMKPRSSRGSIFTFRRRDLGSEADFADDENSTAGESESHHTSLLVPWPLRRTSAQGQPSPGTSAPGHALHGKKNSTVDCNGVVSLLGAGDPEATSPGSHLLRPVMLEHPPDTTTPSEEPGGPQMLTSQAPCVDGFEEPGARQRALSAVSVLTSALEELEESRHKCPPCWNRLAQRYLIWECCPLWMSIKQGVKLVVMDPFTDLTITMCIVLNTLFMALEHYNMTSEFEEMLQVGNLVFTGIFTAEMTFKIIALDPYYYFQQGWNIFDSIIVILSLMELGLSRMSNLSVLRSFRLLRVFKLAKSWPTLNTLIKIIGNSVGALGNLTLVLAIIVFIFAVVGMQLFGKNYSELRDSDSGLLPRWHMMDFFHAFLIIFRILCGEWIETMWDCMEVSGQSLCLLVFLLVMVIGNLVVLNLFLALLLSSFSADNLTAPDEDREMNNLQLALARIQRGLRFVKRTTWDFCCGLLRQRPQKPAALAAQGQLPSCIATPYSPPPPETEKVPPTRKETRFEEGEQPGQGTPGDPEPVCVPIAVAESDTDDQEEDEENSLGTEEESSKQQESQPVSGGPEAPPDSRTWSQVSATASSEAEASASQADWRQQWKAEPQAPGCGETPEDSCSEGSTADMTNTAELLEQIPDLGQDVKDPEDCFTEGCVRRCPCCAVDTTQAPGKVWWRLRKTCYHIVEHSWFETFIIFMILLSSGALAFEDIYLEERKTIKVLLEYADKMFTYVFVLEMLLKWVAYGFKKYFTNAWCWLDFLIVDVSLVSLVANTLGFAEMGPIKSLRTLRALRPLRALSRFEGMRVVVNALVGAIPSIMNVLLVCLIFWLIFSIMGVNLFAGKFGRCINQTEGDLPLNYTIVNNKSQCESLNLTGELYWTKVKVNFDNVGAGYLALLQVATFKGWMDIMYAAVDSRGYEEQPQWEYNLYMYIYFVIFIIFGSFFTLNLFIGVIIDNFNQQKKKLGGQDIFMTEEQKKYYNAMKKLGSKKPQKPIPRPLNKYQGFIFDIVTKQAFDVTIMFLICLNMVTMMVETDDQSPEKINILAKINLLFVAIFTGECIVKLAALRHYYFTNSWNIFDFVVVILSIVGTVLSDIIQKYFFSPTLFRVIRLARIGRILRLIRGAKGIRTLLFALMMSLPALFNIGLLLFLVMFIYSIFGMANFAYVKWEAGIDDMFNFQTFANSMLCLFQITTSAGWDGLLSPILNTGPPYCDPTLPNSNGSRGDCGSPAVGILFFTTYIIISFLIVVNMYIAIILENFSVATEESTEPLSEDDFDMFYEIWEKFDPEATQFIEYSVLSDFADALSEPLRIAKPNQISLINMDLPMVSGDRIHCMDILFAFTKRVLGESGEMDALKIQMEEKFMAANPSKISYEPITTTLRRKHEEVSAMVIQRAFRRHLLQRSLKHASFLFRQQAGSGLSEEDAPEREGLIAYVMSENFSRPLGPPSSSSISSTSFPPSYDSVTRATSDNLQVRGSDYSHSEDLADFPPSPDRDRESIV
T1 sequence (Q15858 whole entry): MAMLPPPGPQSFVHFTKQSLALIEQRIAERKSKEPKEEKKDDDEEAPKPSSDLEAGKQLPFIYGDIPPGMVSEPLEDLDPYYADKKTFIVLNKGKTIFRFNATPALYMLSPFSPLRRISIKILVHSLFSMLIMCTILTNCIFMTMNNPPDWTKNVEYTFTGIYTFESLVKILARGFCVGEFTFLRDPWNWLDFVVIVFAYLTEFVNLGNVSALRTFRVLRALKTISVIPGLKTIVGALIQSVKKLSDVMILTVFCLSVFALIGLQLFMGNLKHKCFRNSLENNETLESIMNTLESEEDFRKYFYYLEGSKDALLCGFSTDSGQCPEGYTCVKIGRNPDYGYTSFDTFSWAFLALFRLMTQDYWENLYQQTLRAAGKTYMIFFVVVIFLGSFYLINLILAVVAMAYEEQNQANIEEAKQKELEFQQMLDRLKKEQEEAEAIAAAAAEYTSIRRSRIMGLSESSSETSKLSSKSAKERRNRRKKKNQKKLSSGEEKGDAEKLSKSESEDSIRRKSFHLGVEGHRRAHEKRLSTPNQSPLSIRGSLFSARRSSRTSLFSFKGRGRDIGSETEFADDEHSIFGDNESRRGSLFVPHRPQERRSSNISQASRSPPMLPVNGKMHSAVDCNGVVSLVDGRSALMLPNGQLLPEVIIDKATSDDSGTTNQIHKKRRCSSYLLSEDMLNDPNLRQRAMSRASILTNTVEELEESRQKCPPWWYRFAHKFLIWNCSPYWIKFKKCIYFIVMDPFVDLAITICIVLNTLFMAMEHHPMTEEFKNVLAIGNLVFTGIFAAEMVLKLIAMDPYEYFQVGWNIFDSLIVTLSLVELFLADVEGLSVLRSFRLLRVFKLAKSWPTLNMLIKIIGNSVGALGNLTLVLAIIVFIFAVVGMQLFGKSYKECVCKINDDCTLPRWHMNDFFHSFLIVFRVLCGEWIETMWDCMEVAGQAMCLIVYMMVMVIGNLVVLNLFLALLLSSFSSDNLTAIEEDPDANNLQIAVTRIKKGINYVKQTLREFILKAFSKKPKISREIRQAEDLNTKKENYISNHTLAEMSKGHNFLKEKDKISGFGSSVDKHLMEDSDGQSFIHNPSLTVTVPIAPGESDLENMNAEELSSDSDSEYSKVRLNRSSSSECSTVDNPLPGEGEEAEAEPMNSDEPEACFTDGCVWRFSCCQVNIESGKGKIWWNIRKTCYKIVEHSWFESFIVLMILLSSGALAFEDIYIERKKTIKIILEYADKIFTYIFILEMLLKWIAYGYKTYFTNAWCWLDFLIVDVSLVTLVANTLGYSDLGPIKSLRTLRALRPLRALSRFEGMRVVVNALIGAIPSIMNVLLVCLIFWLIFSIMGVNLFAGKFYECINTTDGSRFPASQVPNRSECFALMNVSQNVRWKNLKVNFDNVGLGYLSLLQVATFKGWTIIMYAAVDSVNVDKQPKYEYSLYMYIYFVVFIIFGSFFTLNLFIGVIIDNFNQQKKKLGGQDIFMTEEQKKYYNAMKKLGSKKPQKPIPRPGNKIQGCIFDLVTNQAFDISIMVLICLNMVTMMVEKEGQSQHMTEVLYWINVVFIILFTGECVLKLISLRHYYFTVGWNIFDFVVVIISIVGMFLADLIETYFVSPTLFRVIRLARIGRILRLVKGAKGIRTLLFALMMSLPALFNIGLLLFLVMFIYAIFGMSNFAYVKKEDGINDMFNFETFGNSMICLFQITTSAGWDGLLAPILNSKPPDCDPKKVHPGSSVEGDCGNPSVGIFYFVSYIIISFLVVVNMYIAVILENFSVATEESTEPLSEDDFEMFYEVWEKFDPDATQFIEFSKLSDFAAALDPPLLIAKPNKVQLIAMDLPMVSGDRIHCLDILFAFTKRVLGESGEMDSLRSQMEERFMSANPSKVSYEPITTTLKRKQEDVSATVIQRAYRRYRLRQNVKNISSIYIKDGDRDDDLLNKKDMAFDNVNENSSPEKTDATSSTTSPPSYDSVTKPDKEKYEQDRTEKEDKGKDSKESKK

SMILES | IC50 [1] [nM] | ratio of Nav 1.5:Nav 1.7 potency, determined by PatchXpress measurement [2]
NC1CCc2cccc(Cn3c(=O)oc4cc(S(=O)(=O)Nc5ncns5)c(F)cc43)c2C1 (racemic) [Compound 20-4, 3-((7-amino-5,6,7,8-tetrahydronaphthalen-1-yl)methyl)-5-fluoro-2-oxo-N-(1,2,4-thiadiazol-5-yl)-2,3-dihydrobenzo[d]oxazole-6-sulfonamide] | 179 | 167
NC1CCc2c(cccc2Cn2c(=O)oc3cc(S(=O)(=O)Nc4ncns4)ccc32)C1 (racemic) [Compound 23-3, (+/−)-3-[(6-amino-5,6,7,8-tetrahydronaphthalen-1-yl)methyl]-2-oxo-N-1,2,4-thiadiazol-5-yl-2,3-dihydro-1,3-benzoxazole-6-sulfonamide] | 342 | 88
O=c1oc2cc(S(=O)(=O)Nc3ncns3)c(F)cc2n1Cc1cccc2c1CC(N1CCC(F)(F)C1)CC2 (racemic) [Compound 23-5, (+/−)-3-{[7-(3,3-difluoropyrrolidin-1-yl)-5,6,7,8-tetrahydronaphthalen-1-yl]methyl}-5-fluoro-2-oxo-N-1,2,4-thiadiazol-5-yl-2,3-dihydro-1,3-benzoxazole-6-sulfonamide] | 278 | 78
O=c1oc2cc(S(=O)(=O)Nc3ncns3)c(F)cc2n1Cc1cccc2c1CC(NCC(F)(F)F)CC2 (racemic) [Compound 23-7, (+/−)-5-fluoro-2-oxo-N-1,2,4-thiadiazol-5-yl-3-({7-[(2,2,2-trifluoroethyl)amino]-5,6,7,8-tetrahydronaphthalen-1-yl}methyl)-2,3-dihydro-1,3-benzoxazole-6-sulfonamide] | 206 | 146
NC1CCc2c(cccc2Cn2c(=O)oc3cc(S(=O)(=O)Nc4ncns4)c(F)cc32)C1 (racemic) [Compound 23-8, (+/−)-3-[(6-amino-5,6,7,8-tetrahydronaphthalen-1-yl)methyl]-5-fluoro-2-oxo-N-1,2,4-thiadiazol-5-yl-2,3-dihydro-1,3-benzoxazole-6-sulfonamide] | 186 | 161
NC1Cc2cccc(Cn3c(=O)oc4cc(S(=O)(=O)Nc5ncns5)ccc43)c2C1 (racemic) [Compound 23-9, (+/−)-3-[(2-amino-2,3-dihydro-1H-inden-4-yl)methyl]-2-oxo-N-1,2,4-thiadiazol-5-yl-2,3-dihydro-1,3-benzoxazole-6-sulfonamide] | 180 | 167
O=c1oc2cc(S(=O)(=O)Nc3ncns3)c(F)cc2n1Cc1cccc2c1CC(N1CCCC1C(F)(F)F)CC2 (racemic) [Compound 23-11, (+/−)-5-fluoro-2-oxo-N-1,2,4-thiadiazol-5-yl-3-({7-[2-(trifluoromethyl)pyrrolidin-1-yl]-5,6,7,8-tetrahydronaphthalen-1-yl}methyl)-2,3-dihydro-1,3-benzoxazole-6-sulfonamide] | 115 | 73
CC(c1cccc2c1CC(N1CC(F)(F)C1)CC2)n1c(=O)oc2cc(S(=O)(=O)Nc3ncns3)c(F)cc21 (racemic) [Compound 23-12, (+/−)-3-{1-[7-(3,3-difluoroazetidin-1-yl)-5,6,7,8-tetrahydronaphthalen-1-yl]ethyl}-5-fluoro-2-oxo-N-1,2,4-thiadiazol-5-yl-2,3-dihydro-1,3-benzoxazole-6-sulfonamide] | 109 | 46
O=c1oc2cc(S(=O)(=O)Nc3ncns3)c(F)cc2n1Cc1cccc2c1CC(NCC(F)F)CC2 (racemic) [Compound 23-13, (+/−)-3-({7-[(2,2-difluoroethyl)amino]-5,6,7,8-tetrahydronaphthalen-1-yl}methyl)-5-fluoro-2-oxo-N-1,2,4-thiadiazol-5-yl-2,3-dihydro-1,3-benzoxazole-6-sulfonamide] | 84 | 121
CN(C)C1CCc2cccc(Cn3c(=O)oc4cc(S(=O)(=O)Nc5ncns5)c(F)cc43)c2C1 (racemic) [Compound 23-15, (+/−)-3-{[7-(dimethylamino)-5,6,7,8-tetrahydronaphthalen-1-yl]methyl}-5-fluoro-2-oxo-N-1,2,4-thiadiazol-5-yl-2,3-dihydro-1,3-benzoxazole-6-sulfonamide] | 72 | 207
O=c1oc2cc(S(=O)(=O)Nc3ncns3)c(F)cc2n1Cc1cccc2c1CC(N1CCOCC1)CC2 (racemic) [Compound 23-16, (+/−)-5-fluoro-3-[(7-morpholin-4-yl-5,6,7,8-tetrahydronaphthalen-1-yl)methyl]-2-oxo-N-1,2,4-thiadiazol-5-yl-2,3-dihydro-1,3-benzoxazole-6-sulfonamide] | 70 | 431
NC1Cc2cccc(Cn3c(=O)oc4cc(S(=O)(=O)Nc5ncns5)c(F)cc43)c2C1 (racemic) [Compound 23-17, (+/−)-3-[(2-amino-2,3-dihydro-1H-inden-4-yl)methyl]-5-fluoro-2-oxo-N-1,2,4-thiadiazol-5-yl-2,3-dihydro-1,3-benzoxazole-6-sulfonamide] | 50 | 321
CNC1CCc2cccc(Cn3c(=O)oc4cc(S(=O)(=O)Nc5ncns5)ccc43)c2C1 (racemic) [Compound 23-18, (+/−)-3-{[7-(methylamino)-5,6,7,8-tetrahydronaphthalen-1-yl]methyl}-2-oxo-N-1,2,4-thiadiazol-5-yl-2,3-dihydro-1,3-benzoxazole-6-sulfonamide] | 47 | 642
O=c1oc2cc(S(=O)(=O)Nc3ncns3)c(F)cc2n1Cc1cccc2c1CC(N1CCC1)CC2 (racemic) [Compound 23-19, (+/−)-3-[(7-azetidin-1-yl-5,6,7,8-tetrahydronaphthalen-1-yl)methyl]-5-fluoro-2-oxo-N-1,2,4-thiadiazol-5-yl-2,3-dihydro-1,3-benzoxazole-6-sulfonamide] | 32 | 499
O=c1oc2cc(S(=O)(=O)Nc3ncns3)c(F)cc2n1Cc1cccc2c1CC(N1CCCC1)CC2 (racemic) [Compound 23-20, (+/−)-5-fluoro-2-oxo-3-[(7-pyrrolidin-1-yl-5,6,7,8-tetrahydronaphthalen-1-yl)methyl]-N-1,2,4-thiadiazol-5-yl-2,3-dihydro-1,3-benzoxazole-6-sulfonamide] | 30 | 802
O=c1oc2cc(S(=O)(=O)Nc3ncns3)c(F)cc2n1Cc1cccc2c1CC(NCCF)CC2 (racemic) [Compound 23-21, (+/−)-5-fluoro-3-({7-[(2-fluoroethyl)amino]-5,6,7,8-tetrahydronaphthalen-1-yl}methyl)-2-oxo-N-1,2.4-thiadiazol-5-yl-2,3-dihydro-1,3-benzoxazole-6-sulfonamide] | 28 | 920
O=c1oc2cc(S(=O)(=O)Nc3ncns3)c(F)cc2n1Cc1cccc2c1CC(NCCO)CC2 (racemic) [Compound 23-22, (+/−)-5-fluoro-3-({7-[(2-hydroxyethyl)amino]-5,6,7,8-tetrahydronaphthalen-1-yl}methyl)-2-oxo-N-1,2,4-thiadiazol-5-yl-2,3-dihydro-1,3-benzoxazole-6-sulfonamide] | 26 | 221
O=c1oc2cc(S(=O)(=O)Nc3ncns3)c(F)cc2n1Cc1cccc2c1CC(NCc1ccccc1)CC2 (racemic) [Compound 23-23, (+/−)-3-{[7-(benzylamino)-5,6,7,8-tetrahydronaphthalen-1-yl]methyl}-5-fluoro-2-oxo-N-1,2,4-thiadiazol-5-yl-2,3-dihydro-1,3-benzoxazole-6-sulfonamide] | 24 | 502
CC(c1cccc2c1CC(N)CC2)n1c(=O)oc2cc(S(=O)(=O)Nc3ncns3)c(F)cc21 (racemic) [Compound 23-24, (R,R and S,R) or (R,S and S,S)-3-[1-(7-amino-5,6,7,8-tetrahydronaphthalen-1-yl)ethyl]-5-fluoro-2-oxo-N-1,2,4-thiadiazol-5-yl-2,3-dihydro-1,3-benzoxazole-6-sutfonamide] | 15 | 1119
CNC1CCc2cccc(Cn3c(=O)oc4cc(S(=O)(=O)Nc5ncns5)c(F)cc43)c2C1 (racemic) [Compound 23-26, (+/−)-5-fluoro-3-{[7-(methylamino)-5,6,7,8-tetrahydronaphthalen-1-yl]methyl}-2-oxo-N-1,2,4-thiadiazol-5-yl-2,3-dihydro-1,3-benzoxazole-6-sulfonamide] | 12 | 2451
